How the values were obtained:
[1] = Hypothetical ADMEP and Phase-I-II study of compound 1 (Example-3); type: in vivo, humans; settings: 1.5 mg from the gut to the plasma three times a day (4.5 mg/24 hours)
Description: Based on ADMEP (Absorption, Distribution, Metabolism, Excretion, Pharmacokinetics) studies conducted with analogous compound 1 in animals and humans during pre-clinical investigations and Phase-I-II clinical trials it was determined that an absorption of 1.0 mg of the drug from the gut to plasma three times a day from divided oral dosage units is optimal (3.0 mg/24 hours) in treating the antifolate responsive disease without causing significant toxicity. […] The bioavailability of this drug from the oral dosage unit used was only 10 percent as determined from a Phase-I clinical trial in healthy volunteers. […] The Bioavailability of this new medication was pH dependent due to solubility reasons and therefore it was possible that fluctuations in bioavailability might occur in certain patients as described in example-2. Thus in certain patients taking antacids or drugs such as certain prostaglandin to reduce acid secretion or other unknown factors the pH of the gut might increase to enhance the solubility and thereby increasing the bio-availability to the 15 to 20% range.

[2] = test system: MCF-7; experiment: Growth inhibition of human tumor cells in culture, MCF-7 (Breast Cancer); type: cell-based
Excerpt: (§1) The preceding data summarize the ability of compound 2 to inhibit 50% of the growth of selected tumor cells in culture. The values are expressed as Log10 GI50 values all of which are lower than 10^−8 M. In the same table a comparison is made of the respective values of TGI (Total Growth Inhibition) for 2 and methotrexate.

[3] = test system: RPMI 8226; experiment: Growth inhibition of human tumor cells in culture, RPMI 8226 (Leukemia); type: cell-based
Excerpt: as §1

[4] = test system: K562; experiment: Growth inhibition of human tumor cells in culture, K562 (Leukemia); type: cell-based
Excerpt: as §1

[5] = test system: SF 539; experiment: Growth inhibition of human tumor cells in culture, SF 539 (CNS Cancer); type: cell-based
[6] = test system: CCRF-CEM; experiment: Growth inhibition of human tumor cells in culture, CCRF-CEM (Leukemia); type: cell-based
Excerpt: as §1

[7] = test system: SR; experiment: Growth inhibition of human tumor cells in culture, SR (Leukemia); type: cell-based
Excerpt: as §1

[8] = test system: MCF7-ADR-RES; experiment: Growth inhibition of human tumor cells in culture, MCF7-ADR-RES (Breast Cancer); type: cell-based
Excerpt: as §1

[9] = test system: MOLT-4; experiment: Growth inhibition of human tumor cells in culture, MOLT-4 (Leukemia); type: cell-based
Excerpt: as §1

[10] = test system: selected tumor cells in culture; experiment: Growth inhibition of selected tumor cells in culture (summary); type: cell-based, Human; settings: all selected tumor cell lines of the table; read-out: GI50 (inhibit 50% of the growth)
Excerpt: as §1

[11] = test system: patients with rheumatoid arthritis; experiment: Clinical trial of M-Trex (Mobiletrex) in patients with rheumatoid arthritis, relative to methotrexate; type: in vivo, human; set-up: CRP: unit not given here; settings: for CRP: plasma C-Reactive Protein
Excerpt: In 2002; Castaneda and M. Gopal Nair conducted the clinical trial of a metabolism-blocked antifolate Mobileterx in patients with rheumatoid arthritis to evaluate its efficacy relative to the well-known antifolate drug methotrexate. In this pilot study [O. Castaneda and M. Gopal Nair. [The J. Rheumatology.

[12] = Toxicity (maximum tolerated dose), i.v. push daily × 5 in nude mice; type: in vivo; settings: i.v. push daily × 5, nude mice bearing HCT-8 xenograft
[13] = test system: Human HCT-8 Colon Xenograft; experiment: Antitumor activity in nude mice bearing human HCT-8 colon xenograft; type: in vivo; settings: i.v. push daily × 5
[14] = test system: patients with rheumatoid arthritis; experiment: Conventional therapy of rheumatoid arthritis with methotrexate in patients; type: in vivo, human
[15] = cited from earlier work
[16] = cited from earlier work; remark: listed apart in the source
[17] = Bioavailability / absorption of oral methotrexate in patients; type: in vivo, human; settings: oral dosage form, group of arthritic patients (Example-2)
[18] = oral dosage form; cited from earlier work
[19] = test system: aldehyde oxidase; settings: cited from earlier work

C=C(CC(NC(=O)c1ccc(CCc2ccc3nc(N)nc(N)c3c2)cc1)C(=O)O)C(=O)O (stereo not shown) [Compound 1, 4′-Methylene-5,8,10-trideazaaminopterin]
toxicity [1]: unacceptable GI and bone marrow toxicity

C=C(CC(NC(=O)c1ccc(CCc2ccc3nc(N)nc(N)c3c2)cc1)C(=O)O)C(=O)O (stereo not shown) [Compound 2]
TGI (Total Growth Inhibition) [2]: −6.32 | Log10 GI50 ([2]; Log10 of molar concentration): <−8.00 | TGI (Total Growth Inhibition) [3]: −7.44 | Log10 GI50 ([3]; Log10 of molar concentration): <−8.00 | TGI (Total Growth Inhibition) [4]: <−8.00 | Log10 GI50 ([4]; Log10 of molar concentration): <−8.00 | TGI (Total Growth Inhibition) [5]: −6.3 | Log10 GI50 ([5]; Log10 of molar concentration): <−8.00 | TGI (Total Growth Inhibition) [6]: <−8.00 | Log10 GI50 ([6]; Log10 of molar concentration): <−8.00 | TGI (Total Growth Inhibition) [7]: <−8.00 | Log10 GI50 ([7]; Log10 of molar concentration): <−8.00 | TGI (Total Growth Inhibition) [8]: −7.26 | Log10 GI50 ([8]; Log10 of molar concentration): <−8.00 | TGI (Total Growth Inhibition) [9]: −7.40 | Log10 GI50 ([9]; Log10 of molar concentration): <−8.00 | GI50 [10]: < 10 nM | ESR ([11]; 4 wks): 52.7 | HAQ ([11]; 4 wks): 1.8 | Pa. GA ([11]; 4 wks): 6.0 | Ph. GA ([11]; 4 wks): 6.2 | S. Joints ([11]; 4 wks): 5.6 | T. Joints ([11]; 4 wks): 10.2 | Pain ([11]; 4 wks of treatment, rheumatoid arthritis patients): 4.1 | CRP ([11]; 4 wks): 22.1 | ESR ([11]; 8 wks): 32.7 | HAQ ([11]; 8 wks): 1.6 | Pa. GA ([11]; 8 wks): 6.0 | Pain ([11]; 8 wks): 2.8 | Ph. GA ([11]; 8 wks): 5.0 | S. Joints ([11]; 8 wks): 3.5 | T. Joints ([11]; 8 wks): 7.3 | CRP ([11]; 8 wks): 20.7 | ESR ([11]; 12 wks): 38.3 | HAQ ([11]; 12 wks): 1.4 | Pa. GA ([11]; 12 wks): 5.0 | Pain ([11]; 12 wks): 2.2 | Ph. GA ([11]; 12 wks): 4.5 | S. Joints ([11]; 12 wks): 3.0 | T. Joints ([11]; 12 wks): 5.8 | CRP ([11]; 12 wks): 17.7 | ESR ([11]; 16 wks): 38.6 | HAQ ([11]; 16 wks): 1.4 | Pa. GA ([11]; 16 wks): 3.0 | Pain ([11]; 16 wks): 1.8 | Ph. GA ([11]; 16 wks): 3.0 | S. Joints ([11]; 16 wks): 2.9 | T. Joints ([11]; 16 wks): 5.8 | CRP ([11]; 16 wks): 13.6 | plasma concentration of C-Reactive Protein (CRP) ([11]; as the treatment progressed): consistently decreased | Maximum Tolerated dose [12]: M-Trex (4.0 mg/kg/day) | MTGI (%) Maximum Tumor Growth Inhibition (% of control) ([13]; 4.0 mg/kg/day (MTD)): 91.4 ± 2.2% | T/C % ([13]; 4.0 mg/kg/day (MTD)): 623.08% | TD (days) Tumor Doubling Time ([13]; 4.0 mg/kg/day (MTD)): 16.2 ± 3.2 days

CN(Cc1cnc2nc(N)nc(N)c2n1)c1ccc(C(=O)N[C@@H](CCC(=O)O)C(=O)O)cc1 [Methotrexate, reference compound]
non-responders ([14]; certain patient populations): up to 40% | drug related toxicity ([14]; some patients): significant drug related toxicity including elevation of liver enzymes | TGI (Total Growth Inhibition) [3]: −3.66 | adverse effects of overdose ([15]; 60 mg weekly instead of 15 mg weekly, oral tablets, rheumatoid arthritis patient): odynophagia, dysphagia and oesophagitis | adverse effects of dosing error ([15]; weekly dose taken in error daily or on several days each week): severe unwanted effects, including neutropenia, hepatotoxicity and bone marrow suppression | TGI (Total Growth Inhibition) [4]: −3.30 | TGI (Total Growth Inhibition) [5]: −3.66 | solubility [16]: pH dependent | TGI (Total Growth Inhibition) [6]: −3.77 | absorption [17]: 20% | bioavailability [18]: 20-80% | aldehyde oxidase mediated oxidative deactivation [19]: efficiently converted to its corresponding 7-hydroxymethotrexate | TGI (Total Growth Inhibition) [7]: −3.50 | TGI (Total Growth Inhibition) [9]: −3.55 | MTD at 5 days ([12]; mouse, in vivo, iv): 1 mg/kg/day | MTGI (%) Maximum Tumor Growth Inhibition (% of control) ([13]; 1.0 mg/kg/day (MTD)): 30.0 ± 9.0% | T/C % ([13]; 1.0 mg/kg/day (MTD)): 176.92% | TD (days) Tumor Doubling Time ([13]; 1.0 mg/kg/day (MTD)): 4.6 ± 0.6 days

— US20100260825A1, “Antifolates for the treatment of cardiovascular, inflammatory, neoplastic, autoimmune and related diseases in sublingual dosage units, film strips, or skin patches” (priority 2009, published 2010)
